According to patent publication US20140142094A1, “KINASE INHIBITORS” (ICAHN SCHOOL OF MEDICINE AT MOUNT SINAI, priority 2011, published 2014):

Experiments:
[1] = system: K562 (chronic myelogenous leukemia; leukemia cell line +ve for Bcr-Abl); assay: Cytotoxicity on K562 cancer cell line; type: cell-based; details: Homo sapiens; K562 cells, 96 h treatment
Protocol: (§1) The effect of the compounds described herein on tumor cells was determined by the assay described by Latham et al., Oncogene 12:827-837 (1996). Tumor cells K562 (chronic myelogenous leukemia; leukemia cell line +ve for Bcr-Abl) or DU145 (prostate cancer) were plated in 12-well dishes at a cell density of 2.5×10^4 cells per well. The plated cells were treated 24h. later with a DMSO solution of a compound as described herein at multiple concentrations ranging from 0.01 μM to 100 μM. The plates were examined 96 h. later under an inverted microscope, Olympus CK-2 using a 10× objective, and compound activity was noted by physical observation. When necessary, the total number of viable cells was determined by trypsinizing the wells and counting the number of viable cells, as determined by trypan blue exclusion, using a hemacytometer.

DU145 (prostate cancer) = assay: Cytotoxicity on DU145 cancer cell line; type: cell-based; details: Homo sapiens, DU-145; DU145 cells, 96 h treatment
Protocol: as §1

SMILES	IC50 [1] [µM]	IC50 (DU145 (prostate cancer)) [µM]	melting point [°C]
CN1CCN(c2ccc(Nc3ncc4c(n3)S/C(=C/c3ccc(F)cc3)C(=O)N4)cc2)CC1 [Compound 1a, (E)-7-(4-Fluorobenzylidene)-2-(4-(4-methylpiperazin-1-yl)phenylamino)-5H-pyrimido[4,5-b][1,4]thiazin-6(7H)-one]	1 to 10	1 to 10	
CC(=O)Oc1ccc(/C=C2/Sc3nc(Nc4ccc(N5CCN(C)CC5)cc4)ncc3NC2=O)cc1 [Compound 1c, (E)-4-((2-(4-(4-Methylpiperazin-1-yl)phenylamino)-6-oxo-5H-pyrimido[4,5-b][1,4]thiazin-7(6H)-ylidene)methyl)phenyl acetate]	1 to 10	1 to 10	
COc1ccc(/C=C2/Sc3nc(N(C(C)=O)c4ccc(N5CCN(C)CC5)cc4)ncc3NC2=O)cc1[N+](=O)[O-] [Compound 1d, (E)-N-(7-(4-methoxy-3-nitrobenzylidene)-6-oxo-6,7-dihydro-5H-pyrimido[4,5-b][1,4]thiazin-2-yl)-N-(4-(4-methylpiperazin-1-yl)phenyl)acetamide]	1 to 10	1 to 10	
O=C1Nc2cnc(N3CCN(c4ccccn4)CC3)nc2S/C1=C/c1ccc([N+](=O)[O-])cc1 [Compound 1e, (E)-7-(4-Nitrobenzylidene)-2-(4-(pyridin-2-yl)piperazin-1-yl)-5H-pyrimido[4,5-b][1,4]thiazin-6(7H)-one]	10 to 25	1 to 10	
CC(=O)N1CCN(c2ccc(Oc3ncc4c(n3)S/C(=C/c3ccc([N+](=O)[O-])cc3)C(=O)N4)cc2)CC1 [Compound 1f, (E)-2-(4-(4-Acetylpiperazin-1-yl)phenoxy)-7-(4-nitrobenzylidene)-5H-pyrimido[4,5-b][1,4]thiazin-6(7H)-one]	10 to 25	10 to 25	
CC(=O)N(c1ccc(N2CCN(C)CC2)cc1)c1ncc2c(n1)S/C(=C/c1cn(C(C)=O)c3ccccc13)C(=O)N2 [Compound 1g, (E)-N-(7-((1-Acetyl-1H-indol-3-yl)methylene)-6-oxo-6,7-dihydro-5H-pyrimido[4,5-b][1,4]thiazin-2-yl)-N-(4-(4-methylpiperazin-1-yl)phenyl)acetamide]	1 to 10	1 to 10	
CN1CCN(c2ccc(Nc3ncc4c(n3)S/C(=C/c3ccc(N)cc3)C(=O)N4)cc2)CC1 [Compound 1h, (E)-7-(4-Aminobenzlidene)-2-(4-(4-methylpiperazin-1-yl)phenylamino)-5H-pyrimido[4,5-b][1,4]thiazin-6(7H)-one]	< 1	1 to 10	
CC(=O)Oc1ccc(/C=C2/Sc3nc(N4CCN(c5ccccn5)CC4)ncc3NC2=O)cc1 [Compound 1i, (E)-4-((6-Oxo-2-(4-(pyridin-2-yl)piperazin-1-yl)-5H-pyrimido[4,5-b][1,4]thiazin-7(6H)-ylidene)methyl)phenyl acetate]	1 to 10	1 to 10	
O=C1Nc2cnc(N3CCN(c4ncccn4)CC3)nc2S/C1=C/c1ccc([N+](=O)[O-])cc1 [Compound 1j, (E)-7-(4-Nitrobenzylidene)-2-(4-(pyrimidin-2-yl)piperazin-1-yl)-5H-pyrimido[4,5-b][1,4]thiazin-6(7H)-one]	50 to 100	25 to 50	
O=C1Nc2cnc(Nc3ccc(N4CCOCC4)cc3)nc2S/C1=C/c1ccc([N+](=O)[O-])cc1 [Compound 1k, (E)-2-((4-Morpholinophenyl)amino)-7-(4-nitrobenzylidene)-5H-pyrimido[4,5-b][1,4]thiazin-6(7H)-one]	50 to 100	50 to 100	302 to 304
CC(=O)N(c1ccc(N2CCN(C)CC2)cc1)c1ncc2c(n1)S/C(=C/c1ccc(C(=O)O)cc1)C(=O)N2 [Compound 1l, (E)-4-((2-(N-(4-(4-Methylpiperazin-1-yl)phenyl)acetamido)-6-oxo-5H-pyrimido[4,5-b][1,4]thiazin-7(6H)-ylidene)methyl)benzoic acid]	50 to 100	50 to 100	326 to 330
CC1CCN(c2ccc(Nc3ncc4c(n3)S/C(=C/c3ccc([N+](=O)[O-])cc3)C(=O)N4)cc2)CC1 [Compound 1m, (E)-2-((4-(4-Methylpiperidin-1-yl)phenyl)amino)-7-(4-nitrobenzylidene)-5H-pyrimido[4,5-b][1,4]thiazin-6(7H)-one]	1 to 10	1 to 10	
CN1CCN(c2ccc(Nc3ncc4c(n3)S/C(=C/c3ccc(C#N)cc3)C(=O)N4)cc2)CC1 [Compound 1n, (E)-4-((2-((4-(4-Methylpiperazin-1-yl)phenyl)amino)-6-oxo-5H-pyrimido[4,5-b][1,4]thiazin-7(6H)-ylidene)methyl)benzonitrile]	< 1	< 1	274 to 276
CN1CCN(c2ccc(Nc3ncc4c(n3)S/C(=C/c3ccc(OCc5ccccc5)cc3)C(=O)N4)cc2)CC1 [Compound 1o, (E)-7-(4-(Benzyloxy)benzylidene)-2-((4-(4-methylpiperazin-1-yl)pheny)amino)-5H-pyrimido[4,5-b][1,4]thiazin-6(7H)-one]	< 1	< 1	238 to 240
CN1CCN(c2ccc(Nc3ncc4c(n3)S/C(=C/c3ccc(C(N)=O)cc3)C(=O)N4)cc2)CC1 [Compound 1p, (E)-4-((2-((4-(4-Methylpiperazin-1-yl)phenyl)amino)-6-oxo-5H-pyrimido[4,5-b][1,4]thiazin-7(6H)-ylidene)methyl)benzamide]	1 to 10	1 to 10	294 to 298
CN1CCN(c2ccc(Nc3ncc4c(n3)S/C(=C/c3ccc(O)cc3)C(=O)N4)cc2)CC1 [Compound 1q, (E)-7-(4-Hydroxybenzylidene)-2-((4-(4-methylpiperazin-1-yl)phenyl)amino)-5H-pyrimido[4,5-b][1,4]thiazin-6(7H)-one]	< 1	< 1	312 to 314
CN1CCN(c2ccc(Nc3ncc4c(n3)SCC(=O)N4)cc2)CC1 [Compound 4a, 2-(4-(4-methylpiperazin-1-yl)phenylamino)-5H-pyrimido[4,5-b][1,4]thiazin-6(7H)-one]	1 to 10	10 to 25	
O=C1CSc2nc(SCc3c(Cl)cccc3Cl)ncc2N1 [Compound 4d, 2-(2,6-Dichlorobenzylthio)-5H-pyrimido[4,5-b][1,4]thiazin-6(7H)-one]	25 to 50	25 to 50	242 to 244
